“Also recorded” adds a separate entry of the source. Read-outs that look alike come from different tables or passages of the source. Peptide text beside a SMILES is read from it. * marks the point of attachment. Cbz = O=C(OCc1ccccc1)*; CH2F = FC*
Columns and labels:
T24 bladder cancer cells = assay: Cell cycle analysis of T24 3DTMs; format: cell-based, human
Procedure: Following five days of incubation on AM3 Amikagels, 3DTMs of T24 cells with NIH3T3 murine fibroblast cells were harvested for cell cycle analysis. Four or five individual 3DTMs of T24 cells alone or UMUC3 cells alone were harvested on the 7th day after seeding on Amikagels, collected in an eppendorf tube. 50 μl of 5 mg/ml collagenase was added to 3DTMs prepared using fibroblast helper cells for 30 minutes at 37° C. in order to facilitate their disassembly by gentle pipetteing. Single cell 3DTMs were disassembled using manual pipetting. Disassembled 3DTM cells were then centrifuged at 200 r.c.f. in order to collect the cell pellet. The pellet was resuspended in a solution of 1% v/v 1× Triton-X, 5% (v/v) fetal bovine serum (FBS), 50 μg/mL propidium iodide, and 0.006-0.01 units/mL ribonuclease A. After incubation for 30 minutes on ice, cells were analyzed for their cell cycle profiles using flow cytometry; the propidum iodide (PI) signal was detected using an excitation at 535 nm and emission at 617 nm. Voltages of the FL2-A, SSC and FSC channels were adjusted in order to obtain best representative peaks for alignment of 2n (diploidy—G0/G1) peak to 200 intensity units during flow cytometry. FL2A (FL2-Area) provides the information regarding the pulse area of the emitted fluorescence signal (total cell fluorescence) whereas […] light from the sample. FSC is a measure of diffracted light from the sample proportional to cell surface area or size and SSC is proportional to cell granularity or internal complexity.

dormant T24 3DTMs [1] = assay: Escape from dormancy after transfer of T24 3DTMs from AM3 to AM1 Amikagel; format: cell-based, human; conditions: for microcolony formation: 100 μM pre-treatment, 15 days after transfer to AM1
Procedure: T24 3DTMs were first formed on AM3 Amikagels, and transferred to AM1 Amikagels on the seventh day following initial cell seeding, in order to investigate the role of chemo-mechanical properties of Amikagels on 3DTM fate, dormancy and escape from dormancy. Upon transfer, 3DTMs were monitored for cell spreading and motility on the gel for an additional 7 days. After 7 days, cell cycle analysis was carried out on the all 3DTMs as described in the previous sections.
Long-term experiments were also carried out where 3DTMs were continuously monitored for 15 days after their tranfer from AM3 gel to AM1 gel. In order to study the effect of drug treatment, T24 3DTMs were first treated with 0-100 μM docetaxel for 96 hours after 7 days of initial seeding of cells on AM3 gel. After 96 hours of this drug treatment, the 3DTMs were transferred to AM1 gel to study how different chemo-mechanical properties influenced escape from dormancy. Similar studies were also performed using ROCK inhibitor Y-27632 (20 μM).

NIH3T3-T24 3DTMs = assay: Drug efficacy on NIH3T3-T24 3DTM viability; format: cell-based, human, murine
Procedure: After three important tumor phenotypes were captured on Amikagels, we used Amikagel-3DTM platform for high throughput drug screens against those specific phenotypes. T24 (alone), and NIH3T3-T24 3DTMs were exposed to different doses of the DNA-damaging drug, mitoxantrone (31) or the microtubule-stabilizing drug, docetaxel for 96 hours (32). Co-culture 3DTMs were treated with collagenase to allow their disassembly before cell-viability measurement. It was noticed that collagenase treatment enabled very easy diassembly of the co-culture 3DTMs, supporting our previous finding of ECM production.

CHOP = CHOP expression by western blotting; format: cell-based, human; conditions: calcimycin 0.5-μM
Procedure: […] The lysates were then sonicated thrice for 10-15 seconds on ice and collected by centrifugation (16,000 rpm, 20 minutes, 4° C.). Supernatants containing the whole cell protein were stored at −20° C. for subsequent use.
BCA assay was used to quantify the total protein content of the cell lysates. Equivalent quantities of whole cell proteins (4 μg) were combined with 2× Laemmli buffer containing 5% β-mercaptoethanol, and were heat denatured for 5 minutes at 95° C. Equal amounts of protein (4 μg) were then loaded into to the wells of pre-cast gels and run for 35 minutes at 200 V in running buffer (25 mM Tris, […], and 0.1% SDS, pH=8.3). The proteins were transferred to a methanol-activated Hybond PVDF membrane for 30 minutes at 20 V in the transfer buffer (25 mM Tris, 190 mM glycine, and 20% methanol, pH=8.3). The Hybond PVDF membrane was rinsed with 1×PBST and blocked with 3% blocking buffer 3× for 5 minutes each. The membrane was then incubated with the primary antibody for 12 hours at 4° C. (1:1000 CHOP D46F1 Rabbit mAb primary antibody) and (1:5000 f-actin Rabbit Ab primary antibody). […]
Area of the proteins actin and CHOP on the […] membranes were measured using image-J software. The CHOP proteins from treatment samples were then normalized to their actin content and expressed which was further expressed as a percentage of the live control.

dormant 3DTMs = assay: Intracellular calcium imaging; format: cell-based, human; conditions: 3-hour treatment
Procedure: Dormant 3DTMs grown on AM3 Amikagels were treated with calcimycin (0.5 and 5 μM) with calcium (5 mM) and calcium liposomes (175 μM) for 3 hours (3 dormant 3DTMs each). Following 3 hours, the 3DTMs were disassembled using rapid pipetting and cells were collected by centrifugation. The cells were washed with 1×PBS and resuspended in 50 μL cell culture media+50 μL Fluo-4 dye solution (prepared as per vendor's recommendation). After incubation for 60 minutes, the cells were imaged at excitation: 494 nm, emission: 516 nm. Green color fluorescence was used as an indicator of intracellular calcium concentration. Intracellular calcium fluorescence was quantified using imageJ.

dormant T24 3DTMs [2] = conditions: for effect of pan-caspase inhibition on thapsigargin-bortezomib induced cell death: dormant T24 spheroids
Procedure: (§1) Different concentrations (12.5, 25, 50 and 100 μM) of the anticancer drugs docetaxel, (10-40 μM) mitoxantrone, or (250-500 μM) thioTEPA were added to 3DTMs formed after 5-7 days of initial cell seeding on Amikagel. Drugs were added to 3DTMs of T24 cells co-cultured with NIH3T3 murine fibroblasts on day 5, but added to 3DTMs of T24 cells alone on day 7 due to the different times required for their formation After 96 hours of drug exposure, 3DTMs were disassembled using 50 μl of 5 mg/ml collagenase for 20 minutes to allow disassembly for co-culture spheroids, and cell viability was assessed by Live/Dead® staining followed by flow cytometry. 3DTM viability was also measured using MTT/XTT assay as described previously [28]. […] A calcium concentration of 5 mM was used with calcimycin ionophore of different concentrations (0.1, 0.5, 1, 5 and 10 μM) were used to induce cell death. Calcium liposomes were also added at a concentration of 175 μM to the dormant cells.
(§2) Viability of 3DTMs was also determined using the Live-Dead® (Calcein AM-Ethidium homodimer) staining assay. Fresh serum free DMEM media, containing a final concentration of 1 μM of calcein AM and 2 μM of ethidium homodimer-1 (EthD-1), was added to the 3DTMs, and fluorescence imaging was carried out using a Zeiss fluorescence microscope after incubating the reagents for 20 minutes. Green fluorescence emission of calcein-AM inside the live cells was detected using 38 HE filter set (Excitation: 470/40; Emission: 525/50) and red fluorescence of nucleic acid bound-EthD-1 was detected using a 43 HE filter set (Excitation: 550/25; Emission: 605/70). The extent of red and green fluorescence were indicative of the extent of viable and dead cells, respectively, in the 3DTM.
(§3) To quantify the percent dead cells using flow cytometer following drug treatment, 3DTMs were disassembled using collagenase as described previously (whenever necessary). Disassembled cells were suspended in 1×PBS containing a final concentration of 1 μM of Calcein AM and 2 μM of Ethidium Homodimer-1 (EthD-1). After incubating for 20 minutes, fluorescence images were collected as described in previous sections. Cell viability was further quantified using flow cytometry on the same sample using BD FACSAria™ III. Red fluorescence of EthD-1 was detected using a 43 HE filter set (Excitation: 550/25; Emission: 605/70).

dormant T24 3DTMs [3] = assay: cells; conditions: Homo sapiens, 24 h, read-out: LC50
Procedure: as §1, §2, §3

T24 cells in 2D culture [4] = assay: cells; format: cell-based; conditions: Homo sapiens, T-24, 96 h, read-out: LC50
Procedure: Cell death (%) after exposure of 5000 T24 cells to docetaxel for 96 hours after 2D cell culture measured by using MTT assay (circles).

T24 cells in 2D culture [5] = conditions: cited from earlier work

Compound: C[C@@H](N)[C@H]1CC[C@H](C(=O)Nc2ccncc2)CC1 [Amikagel Y-27632, Y-27632]
- cell cycle profile of dormant cells on AM3 gels (T24 bladder cancer cells; 20-μM, 96 hours): did not observe any changes in the cell cycle profile
- cell escape from mother spheroid (dormant T24 3DTMs [1]; 20-μM for 96 hours on AM3 gel, then transfer to AM1 gel): increase in the number of cells escape

Compound: S=P(N1CC1)(N1CC1)N1CC1 [ThioTEPA]
- response of NIH3T3-T24 3DTMs (NIH3T3-T24 3DTMs; up to a concentration as high as 500 μM): resistant

Compound: CNc1ccc2oc(C[C@H]3O[C@@]4(CC[C@H]3C)O[C@H]([C@H](C)C(=O)c3ccc[nH]3)[C@H](C)C[C@H]4C)nc2c1C(=O)O [calcimycin]
- CHOP protein expression (CHOP): No CHOP protein expression
- intracellular calcium fluorescence compared to DMSO control (dormant 3DTMs): significantly higher
- cell death dose response (dormant T24 3DTMs [2]; 24-hour time point): concentration dependent cell death
- CC50 (dormant T24 3DTMs [3]): ~10 µM

Compound: [Ca+2].[Cl-].[Cl-] [calcium, calcium chloride]
- intracellular calcium fluorescence compared to DMSO control (dormant 3DTMs): significantly higher
- impact on dormant cell viability (dormant T24 3DTMs [2]; free calcium in cell culture media 40 mM, 96 hours): minimal impact on dormant cell viability

Compound: CC(=O)O[C@@]12CO[C@@H]1C[C@H](O)[C@@]1(C)C(=O)[C@H](O)C3=C(C)[C@@H](OC(=O)[C@H](O)[C@@H](NC(=O)OC(C)(C)C)c4ccccc4)C[C@@](O)([C@@H](OC(=O)c4ccccc4)[C@H]21)C3(C)C [docetaxel]
- cells in G2/M phase of treated dormant T24 3DTMs (T24 bladder cancer cells; drug-treated dormant T24 3DTMs): did not change the number of cells in G2/M phase
- cells in pre G0/G1 phase of treated dormant T24 3DTMs (T24 bladder cancer cells; drug-treated dormant T24 3DTMs): increase in the number of cells in the pre G0/G1 phase
- CC50 (T24 cells in 2D culture [4]): 10 µM
- cell escape from mother 3DTM (dormant T24 3DTMs [1]; 12.5 μM-100 μM for 96 hours on AM3, then transfer to AM1): significantly reduced the number of cells escaping; also recorded: significantly lesser number of cells escaped
- microcolony formation (dormant T24 3DTMs [1]): drastically reduced
- microcolony formation (dormant T24 3DTMs [1]; listed as Docetaxel): inhibited microcolony formation
- cell death (dormant T24 3DTMs [2]; 100 μM, 96 hours, compared to live control): ~10%
- effect on cell viability of T24 3DTMs (dormant T24 3DTMs [2]; different doses, 96 hours of exposure, listed as Docetaxel): did not have any impact on the cell viability

Compound: O=C1c2c(O)ccc(O)c2C(=O)c2c(NCCNCCO)ccc(NCCNCCO)c21 [mitoxantrone]
- response of NIH3T3-T24 3DTMs (NIH3T3-T24 3DTMs; doses as high as 80 μM, 96 hours): resistant
- CC50 (T24 cells in 2D culture [5]): ~9 µM

Compound: C/C=C(/C)C(=O)O[C@H]1C(C)=C2[C@H]([C@@H]1OC(=O)CCCCCCC)[C@@](C)(OC(C)=O)C[C@H](OC(=O)CCC)[C@@]1(O)[C@H]2OC(=O)[C@@]1(C)O [thapsigargin]
- cell death (dormant T24 3DTMs [2]; single agent, 15-μM, 96 hour treatment): 50%

Compound: COC(=O)C[C@H](NC(=O)[C@H](C)NC(=O)[C@@H](NC(=O)OCc1ccccc1)C(C)C)C(=O)CF [zVAD-fmk] (Cbz-Val-Ala-Asp(OMe)-CH2F)
- effect of pan-caspase inhibition on calcimycin-induced death (dormant T24 3DTMs [2]; 24-hour, 10-μM or 5-μM calcimycin, 5 mM calcium, 5-μM zVAD-fmk): did not rescue
- effect of pan-caspase inhibition on thapsigargin-bortezomib induced cell death (dormant T24 3DTMs [2]; 96 hours): reversed
- effect of pan-caspase inhibition on thapsigargin-bortezomib induced cell death (dormant T24 3DTMs [2]; 96 hours, listed as z-VAD-fmk): significantly rescued
